In brackets after ≈: the same amount, converted by molar mass. Activity calls are given as the source filed them. No cut-off for these calls is given here.
Legend:
[1] = test system: Fusarium oxysporum; test: Antifungal activity against Fusarium oxysporum ATCC 62506 at 100 ug/ml incubated for 72 hrs by agar disc diffusion assay; type: functional; conditions: for zone of inhibition at 100 µg/mL: ATCC 62506, 72 h, read-out: IZ
[2] = test system: Aspergillus niger; test: Antifungal activity against Aspergillus niger ATCC 9029 incubated for 24 hrs by serial dilution method; type: functional
[3] = test system: Aspergillus niger; test: Antifungal activity against Aspergillus niger ATCC 9029 at 100 ug/ml incubated for 72 hrs by agar disc diffusion assay; type: functional; conditions: for zone of inhibition at 100 µg/mL: ATCC 9029, 72 h, read-out: IZ
[4] = test system: Staphylococcus aureus; test: Antibacterial activity against Staphylococcus aureus MTCC 3381 at 100 ug/ml incubated for 12 hrs by agar disc diffusion assay; type: functional; conditions: for zone of inhibition at 100 µg/mL: MTCC 3381, 12 h, read-out: IZ
[5] = test system: Streptomyces griseus; test: Antibacterial activity against Streptomyces griseus MTCC 4734 incubated for 24 hrs by serial dilution method; type: functional
[6] = test system: Bacillus subtilis; test: Antibacterial activity against Bacillus subtilis MTCC 10619 at 100 ug/ml incubated for 12 hrs by agar disc diffusion assay; type: functional; conditions: MTCC 10619, 12 h, read-out: IZ
[7] = test system: Trichoderma reesei; test: Antifungal activity against Trichoderma reesei ATCC 13631 incubated for 24 hrs by serial dilution method; type: functional
[8] = test system: Trichoderma reesei; test: Antifungal activity against Trichoderma reesei ATCC 13631 at 100 ug/ml incubated for 72 hrs by agar disc diffusion assay; type: functional
[9] = test system: Escherichia coli; test: Antibacterial activity against Escherichia coli MTCC 443 at 100 ug/ml incubated for 12 hrs by agar disc diffusion assay; type: functional; conditions: MTCC 443, 12 h, read-out: IZ
[10] = test system: Bacillus subtilis; test: Potency index, ratio of ampicillin MIC to compound MIC for Bacillus subtilis MTCC 10619 by serial dilution method; type: functional
[11] = test system: Fusarium oxysporum; test: Antifungal activity against Fusarium oxysporum ATCC 62506 incubated for 24 hrs by serial dilution method; type: functional
[12] = test system: Escherichia coli; test: Antibacterial activity against Escherichia coli MTCC 443 incubated for 24 hrs by serial dilution method; type: functional; conditions: MTCC 443, 24 h
[13] = test system: Talaromyces funiculosus; test: Antifungal activity against Penicillium funiculosum ATCC 11797 incubated for 24 hrs by serial dilution method; type: functional
[14] = test system: Streptomyces griseus; test: Antibacterial activity against Streptomyces griseus MTCC 4734 at 100 ug/ml incubated for 12 hrs by agar disc diffusion assay; type: functional; conditions: for zone of inhibition at 100 µg/mL: MTCC 4734, 12 h, read-out: IZ
[15] = test system: Staphylococcus aureus; test: Antibacterial activity against Staphylococcus aureus MTCC 3381 incubated for 24 hrs by serial dilution method; type: functional
[16] = test system: Talaromyces funiculosus; test: Antifungal activity against Penicillium funiculosum ATCC 11797 at 100 ug/ml incubated for 72 hrs by agar disc diffusion assay; type: functional; conditions: for zone of inhibition at 100 µg/mL: ATCC 11797, 72 h, read-out: IZ
[17] = test system: Bacillus subtilis; test: Antibacterial activity against Bacillus subtilis MTCC 10619 incubated for 24 hrs by serial dilution method; type: functional; conditions: MTCC 10619, 24 h
[18] = Cytotoxicity against mouse NIH/3T3 cells assessed as cell viability at 25 ug/ml after 72 hrs by MTT assay relative to control; type: cell-based, NIH3T3; conditions: read-out: Activity
[19] = Cytotoxicity against mouse NIH/3T3 cells assessed as cell viability at 50 ug/ml after 72 hrs by MTT assay relative to control; type: cell-based, NIH3T3; conditions: read-out: Activity
[20] = Cytotoxicity against mouse NIH/3T3 cells assessed as cell viability at 100 ug/ml after 72 hrs by MTT assay relative to control; type: cell-based, NIH3T3; conditions: read-out: Activity
[21] = Cytotoxicity against mouse NIH/3T3 cells assessed as cell viability at 250 ug/ml after 72 hrs by MTT assay relative to control; type: cell-based, NIH3T3; conditions: read-out: Activity
[22] = test system: Staphylococcus aureus; test: Potency index, ratio of ampicillin MIC to compound MIC for Staphylococcus aureus MTCC 3381 by serial dilution method; type: functional
[23] = test system: Bacillus subtilis; test: Potency index, ratio of chloramphenicol MIC to compound MIC for Bacillus subtilis MTCC 10619 by serial dilution method; type: functional
[24] = test system: Streptomyces griseus; test: Potency index, ratio of ampicillin MIC to compound MIC for Streptomyces griseus MTCC 4734 by serial dilution method; type: functional

Row | SMILES | MIC ([2]; ATCC 9029, 24 h) [µg/mL] | zone of inhibition at 100 µg/mL [3] [mm] | MIC ([5]; MTCC 4734, 24 h) [µg/mL] | zone of inhibition at 100 µg/mL [6] [mm] | MIC [7] | inhibition zone (IZ) [8] | zone of inhibition at 100 µg/mL [9] [mm] | MIC [12] [µg/mL] | MIC ([13]; ATCC 11797, 24 h) [µg/mL] | zone of inhibition at 100 µg/mL [14] [mm] | zone of inhibition at 100 µg/mL [16] [mm] | MIC [17] [µg/mL] | zone of inhibition at 100 µg/mL [1] [mm] | viability at 72 h, 25 ug/ml [18] [%] | viability at 72 h, 50 ug/ml [19] [%] | zone of inhibition at 100 µg/mL [4] [mm] | viability at 72 h, 100 ug/ml [20] [%] | viability at 72 h, 250 ug/ml [21] [%] | MIC ([11]; ATCC 62506, 24 h) [µg/mL] | MIC ([15]; MTCC 3381, 24 h) [µg/mL] | also measured
1 | O=C1Oc2ccccc2N/C1=C\C(=O)c1ccc(C2CCCCC2)cc1 | 50 (≈ 144 µM) | 6 | 50 (≈ 144 µM) | 22 | inactive | inactive | 8 | 100 (≈ 288 µM) | 50 (≈ 144 µM) | 10 | 6 | 6.25 (≈ 18 µM) | – | – | – | – | – | – | – | – | inhibition zone (IZ) [1]: inactive; inhibition zone (IZ) [4]: inactive; Ratio [10]: 4; MIC [11]: inactive; MIC [15]: inactive
2 | O=C1Oc2ccc([N+](=O)[O-])cc2N/C1=C\C(=O)c1ccc(C2CCCCC2)cc1 | 25 (≈ 63.7 µM) | 18 | 12.5 (≈ 31.9 µM) | 16 | – | – | 18 | 25 (≈ 63.7 µM) | 25 (≈ 63.7 µM) | 22 | 16 | 12.5 (≈ 31.9 µM) | 10 | 98.2 | 89.1 | 20 | 82.5 | 79.2 | 50 (≈ 127 µM) | 6.25 (≈ 15.9 µM) | MIC ([7]; ATCC 13631, 24 h): 25 µg/mL (≈ 63.7 µM); zone of inhibition at 100 µg/mL ([8]; ATCC 13631, 72 h, read-out: IZ): 20 mm; Ratio [22]: 2
3 | O=C1Oc2cc([N+](=O)[O-])ccc2N/C1=C\C(=O)C1CC1 | 100 (≈ 365 µM) | 8 | 3.12 (≈ 11.4 µM) | 24 | inactive | inactive | 18 | 25 (≈ 91.2 µM) | 100 (≈ 365 µM) | 28 | 6 | 3.12 (≈ 11.4 µM) | 10 | 94.3 | 90.9 | 10 | 83.3 | 76.3 | 50 (≈ 182 µM) | 12.5 (≈ 45.6 µM) | Ratio [10]: 8; Ratio [23]: 2; Ratio [24]: 4
4 | O=C1Oc2ccc(Cl)cc2N/C1=C\C(=O)C1CC1 | – | – | – | 8 | inactive | inactive | 10 | 50 (≈ 190 µM) | – | – | – | 100 (≈ 379 µM) | 22 | 99 | 90.3 | 12 | 86.6 | 79.1 | 12.5 (≈ 47.4 µM) | 12.5 (≈ 47.4 µM) | MIC [2]: inactive; inhibition zone (IZ) [3]: inactive; MIC [5]: inactive; MIC [13]: inactive; inhibition zone (IZ) [14]: inactive; inhibition zone (IZ) [16]: inactive
